Results reported in ChEMBL document CHEMBL1201862, “PubChem BioAssay data set” (2004).
Activity calls are given as the source filed them.

Tests used:
[1] = target: T1, RNA-binding protein pos-1 (Caenorhabditis elegans, UniProt G5EF15); assay: inhibitors of POS-1/mex-3 RNA binding, dose response, biochemical, fluorescence polarization (AID 1964);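 further: purified POS-1 fused to maltose binding protein made in E. coli; potency of compounds blocking POS-1 binding to fluorescent RNA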
T1 sequence (G5EF15 whole entry): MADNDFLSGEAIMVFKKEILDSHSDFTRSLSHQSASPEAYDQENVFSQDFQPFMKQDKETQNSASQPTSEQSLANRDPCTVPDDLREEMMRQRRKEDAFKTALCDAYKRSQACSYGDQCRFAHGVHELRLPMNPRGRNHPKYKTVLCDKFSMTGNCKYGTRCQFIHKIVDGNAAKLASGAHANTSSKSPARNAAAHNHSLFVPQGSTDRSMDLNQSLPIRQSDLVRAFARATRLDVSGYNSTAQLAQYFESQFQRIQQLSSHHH

[2] = Counterscreen for IDE inhibitors: Luminescence-based cell-based high throughput dose response assay to identify compounds that are cytotoxic to HEK cells. [Related pubchem assays: 434962 (Primary screen (IDE inhibitors in singlicate)), 449730 (Counterscreen (Cytotoxicity in triplicate)), 435028 (Confirmation (IDE inhibitors in triplicate)) …; type: functional; details: HEK293
[3] = target: T2, Insulin-degrading enzyme (Homo sapiens, UniProt P14735); assay: Dose Response: Fluorescence polarization-based cell-based high throughput dose response assay for inhibitors of insulin-degrading enzyme (IDE). [Related pubchem assays: 434962 (Primary screen (IDE inhibitors in singlicate)), 449730 (Counterscreen (Cytotoxicity in triplicate)), 435028 (Confirmation (IDE inhibitors in triplicate)), 434984 (Summary …; type: functional
T2 sequence (P14735 whole entry): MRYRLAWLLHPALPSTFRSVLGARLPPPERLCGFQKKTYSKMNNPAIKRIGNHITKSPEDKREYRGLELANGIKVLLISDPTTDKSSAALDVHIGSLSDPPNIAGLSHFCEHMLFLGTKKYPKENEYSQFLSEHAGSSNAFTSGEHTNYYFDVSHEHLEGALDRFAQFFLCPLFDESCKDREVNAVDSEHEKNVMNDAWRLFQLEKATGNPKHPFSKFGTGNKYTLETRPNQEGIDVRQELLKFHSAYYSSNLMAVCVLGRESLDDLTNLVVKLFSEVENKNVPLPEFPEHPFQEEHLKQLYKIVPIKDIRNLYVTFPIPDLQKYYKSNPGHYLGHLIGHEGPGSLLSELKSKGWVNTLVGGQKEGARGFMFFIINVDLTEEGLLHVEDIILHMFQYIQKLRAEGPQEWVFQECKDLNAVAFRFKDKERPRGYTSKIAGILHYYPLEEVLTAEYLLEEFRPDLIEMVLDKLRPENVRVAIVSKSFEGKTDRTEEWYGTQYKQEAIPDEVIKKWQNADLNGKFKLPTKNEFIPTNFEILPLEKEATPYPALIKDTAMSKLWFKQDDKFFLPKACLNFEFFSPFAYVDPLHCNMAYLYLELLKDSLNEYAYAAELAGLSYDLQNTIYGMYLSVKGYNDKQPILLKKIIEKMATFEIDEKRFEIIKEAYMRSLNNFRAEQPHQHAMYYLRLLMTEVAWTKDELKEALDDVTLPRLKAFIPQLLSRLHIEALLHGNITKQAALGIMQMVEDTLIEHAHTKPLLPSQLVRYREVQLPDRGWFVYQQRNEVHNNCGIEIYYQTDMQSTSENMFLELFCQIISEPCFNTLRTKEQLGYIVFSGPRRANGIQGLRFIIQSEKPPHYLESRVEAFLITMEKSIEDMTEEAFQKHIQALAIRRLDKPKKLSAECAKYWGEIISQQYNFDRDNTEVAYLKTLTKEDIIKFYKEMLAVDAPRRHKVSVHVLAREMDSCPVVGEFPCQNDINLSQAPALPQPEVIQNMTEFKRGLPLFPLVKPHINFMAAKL

[4] = test system: HEK293; assay: Fluorescence-based counterscreen for potentiators or agonists of NPY-Y2: cell-based high-throughput dose response assay to identify inhibitors of cyclic nucleotide gated ion channel (CNGC) activity. In this assay, the parental HEK293 cell line transfected with a cyclic-nucleotide gated ion channel (CNGC)-based cAMP sensor is used to measure inhibition of isoproterenol-induced CNGC activity by test compound.; type: functional; details: Homo sapiens;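 further: stimulus is 1 µM isoproterenol at EC100 plus PDE inhibitor Ro 20-1724 at 25 µM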
[5] = target: T3, Neuropeptide Y receptor type 2 (Homo sapiens, UniProt P49146); assay: Fluorescence-based cell-based high-throughput dose response assay for agonists of NPY-Y2. [Related pubchem assays: 1703 (Screening assay (CNGC inhibitors).), 1359 (Screening assay (NPY-Y2 potentiators or agonists).), 1304 (Screening assay (NPY-Y1 potentiators or agonists).), 1710 (Screening assay (NPY-Y2 agonists).), 1791 (Summary AID.)]; type: functional
T3 sequence (P49146 whole entry): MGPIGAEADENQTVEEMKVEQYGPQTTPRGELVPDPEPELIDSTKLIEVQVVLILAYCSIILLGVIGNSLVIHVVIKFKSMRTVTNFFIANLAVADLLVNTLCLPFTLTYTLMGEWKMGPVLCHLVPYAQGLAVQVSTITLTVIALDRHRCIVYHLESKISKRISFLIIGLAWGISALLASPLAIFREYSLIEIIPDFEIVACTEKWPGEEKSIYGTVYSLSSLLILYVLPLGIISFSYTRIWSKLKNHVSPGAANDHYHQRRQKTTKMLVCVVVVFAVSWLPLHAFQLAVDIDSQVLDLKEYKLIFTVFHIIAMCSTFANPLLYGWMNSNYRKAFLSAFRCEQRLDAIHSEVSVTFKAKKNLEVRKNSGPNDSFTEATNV

[6] = target: T4, Neuropeptide Y receptor type 1 (Homo sapiens, UniProt P25929); assay: Fluorescence-based counterscreen for agonists of NPY-Y2: cell-based high-throughput dose response assay for agonists of NPY-Y1.; type: functional
T4 sequence (P25929 whole entry): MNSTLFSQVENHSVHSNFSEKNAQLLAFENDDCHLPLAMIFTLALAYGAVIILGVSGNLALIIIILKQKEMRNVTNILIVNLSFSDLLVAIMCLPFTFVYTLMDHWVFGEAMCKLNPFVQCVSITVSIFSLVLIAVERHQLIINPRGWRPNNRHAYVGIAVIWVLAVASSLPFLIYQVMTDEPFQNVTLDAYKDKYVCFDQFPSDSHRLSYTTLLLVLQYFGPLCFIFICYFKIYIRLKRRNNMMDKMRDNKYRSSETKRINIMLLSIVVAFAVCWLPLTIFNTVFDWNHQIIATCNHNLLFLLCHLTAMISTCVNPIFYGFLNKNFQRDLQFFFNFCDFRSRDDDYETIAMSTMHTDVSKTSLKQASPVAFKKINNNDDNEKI

[7] = target: Acyl-homoserine lactone acylase PvdQ (Pseudomonas aeruginosa (strain LESB58), UniProt Q9I194); assay: P. aeruginosa PvdQ acylase inhibitors, dose response, biochemical, fluorescence, plate reader and imaging, cherry-picks (AID 493231)
Acyl-homoserine lactone acylase PvdQ, sequence (Q9I194 24-193 limits assumed): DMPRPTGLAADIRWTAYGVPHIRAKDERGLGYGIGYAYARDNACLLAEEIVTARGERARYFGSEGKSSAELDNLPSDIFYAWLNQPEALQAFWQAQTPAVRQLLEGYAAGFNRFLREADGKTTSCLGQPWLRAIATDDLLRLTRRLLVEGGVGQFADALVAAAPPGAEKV
Acyl-homoserine lactone acylase PvdQ, sequence (Q9I194 217-762 limits assumed): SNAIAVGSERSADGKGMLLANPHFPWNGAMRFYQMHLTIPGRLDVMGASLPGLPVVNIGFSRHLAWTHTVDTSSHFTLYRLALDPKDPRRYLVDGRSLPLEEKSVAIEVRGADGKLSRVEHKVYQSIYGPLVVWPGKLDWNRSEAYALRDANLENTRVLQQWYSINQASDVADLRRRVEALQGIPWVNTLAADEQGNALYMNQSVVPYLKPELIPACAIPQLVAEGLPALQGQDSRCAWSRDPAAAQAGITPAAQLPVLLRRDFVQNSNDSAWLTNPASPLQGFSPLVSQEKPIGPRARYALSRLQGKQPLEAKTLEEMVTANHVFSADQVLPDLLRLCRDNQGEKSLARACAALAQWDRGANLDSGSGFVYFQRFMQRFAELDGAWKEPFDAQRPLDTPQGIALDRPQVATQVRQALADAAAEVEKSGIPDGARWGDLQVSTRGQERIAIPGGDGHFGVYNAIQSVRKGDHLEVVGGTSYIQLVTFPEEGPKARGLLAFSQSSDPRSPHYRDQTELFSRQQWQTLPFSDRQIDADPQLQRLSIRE

[8] = target: NS3 (Hepatitis C virus, UniProt A3EZJ3); assay: PubChem AID 2173; parameters: species or system Hepacivirus hominis
NS3, sequence (A3EZJ3 whole entry): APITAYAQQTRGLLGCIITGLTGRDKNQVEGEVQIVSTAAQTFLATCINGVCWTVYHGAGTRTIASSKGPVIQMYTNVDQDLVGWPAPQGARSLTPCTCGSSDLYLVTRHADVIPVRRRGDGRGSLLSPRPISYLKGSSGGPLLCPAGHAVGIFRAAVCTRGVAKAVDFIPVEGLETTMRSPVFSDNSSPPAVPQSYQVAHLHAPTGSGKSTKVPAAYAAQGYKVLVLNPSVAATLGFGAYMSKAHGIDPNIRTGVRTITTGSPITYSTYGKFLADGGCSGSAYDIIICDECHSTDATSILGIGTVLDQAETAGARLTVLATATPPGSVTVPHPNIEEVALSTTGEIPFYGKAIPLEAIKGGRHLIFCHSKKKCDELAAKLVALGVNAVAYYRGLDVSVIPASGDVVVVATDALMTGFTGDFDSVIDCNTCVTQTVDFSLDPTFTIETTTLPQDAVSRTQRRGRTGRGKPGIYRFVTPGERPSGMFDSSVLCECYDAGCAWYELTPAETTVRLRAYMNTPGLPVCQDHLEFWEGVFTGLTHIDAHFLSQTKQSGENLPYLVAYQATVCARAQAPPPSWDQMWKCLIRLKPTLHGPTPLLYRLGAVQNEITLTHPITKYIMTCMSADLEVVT

[9] = target: Induced myeloid leukemia cell differentiation protein Mcl-1 (Homo sapiens, UniProt Q07820); type: functional
Induced myeloid leukemia cell differentiation protein Mcl-1, sequence (Q07820 whole entry): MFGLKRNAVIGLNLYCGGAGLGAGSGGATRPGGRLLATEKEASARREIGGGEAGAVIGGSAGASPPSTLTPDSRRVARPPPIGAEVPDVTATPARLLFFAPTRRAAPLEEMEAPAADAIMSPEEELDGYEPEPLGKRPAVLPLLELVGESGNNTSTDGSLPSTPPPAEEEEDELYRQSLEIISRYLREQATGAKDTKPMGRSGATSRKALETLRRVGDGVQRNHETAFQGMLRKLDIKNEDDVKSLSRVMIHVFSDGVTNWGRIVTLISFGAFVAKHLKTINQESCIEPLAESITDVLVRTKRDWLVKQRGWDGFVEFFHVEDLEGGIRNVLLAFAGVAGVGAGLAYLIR

[10] = test system: Vero; assay: cells; type: functional, cell-based; details: Chlorocebus sabaeus
[11] = test system: Vero; assay: cells; type: functional; details: Chlorocebus sabaeus
[12] = cytotoxicity in HEK-293T cells, dose response, cytotoxicity control for BCR NF-kB inhibitor project, luminescence, B-cell screen hits (AID 489021); type: functional, cell-based;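 further: HEK-293T cells carrying an NF-kB luciferase reporter; cells exposed to compound for about 14 hours before viability readout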
[13] = A cytotoxicity screen of small molecule inhibitors of the PhoP region in Salmonella typhi identified in the primary screen. [Related pubchem assays: 1850, 1864, 1985 ]; type: functional
[14] = target: Lysosomal acid glucosylceramidase (Homo sapiens, UniProt P04062); assay: Dose response cell-based high throughput screening assay to identify enhancers of beta-glucosidase activity. [Related pubchem assays: 784 ]; type: functional
Lysosomal acid glucosylceramidase, sequence (P04062 whole entry): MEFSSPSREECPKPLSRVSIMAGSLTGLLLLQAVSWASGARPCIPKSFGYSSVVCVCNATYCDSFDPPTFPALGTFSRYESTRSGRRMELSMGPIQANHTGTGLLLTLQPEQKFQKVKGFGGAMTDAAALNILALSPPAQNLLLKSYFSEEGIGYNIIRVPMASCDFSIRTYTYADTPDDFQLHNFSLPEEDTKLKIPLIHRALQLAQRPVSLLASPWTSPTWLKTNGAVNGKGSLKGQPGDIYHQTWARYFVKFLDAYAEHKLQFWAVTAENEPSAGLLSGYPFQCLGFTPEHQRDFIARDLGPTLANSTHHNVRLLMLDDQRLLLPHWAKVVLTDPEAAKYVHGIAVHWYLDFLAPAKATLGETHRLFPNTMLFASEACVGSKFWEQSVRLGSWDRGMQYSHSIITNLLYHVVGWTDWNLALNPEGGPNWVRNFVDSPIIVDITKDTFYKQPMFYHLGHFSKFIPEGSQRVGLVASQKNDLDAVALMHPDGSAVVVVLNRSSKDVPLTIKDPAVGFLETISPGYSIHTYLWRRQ

## CCN(CC)c1ccc(/C=C2\C(=O)NC(=S)N(c3ccc(OC)cc3OC)C2=O)o1
[1]
  EC50: > 150 µM (inconclusive)
[2]
  IC50: > 55.6 µM (not active)
[3]
  IC50: > 6.21 µM (active)

## N#Cc1c(Cl)nsc1NN
[4]
  EC50: 9.97 µM (active)
[5]
  EC50: 9.25 µM (active)
[6]
  EC50: 7.05 µM (active)

## CCOC(=O)/C(C#N)=C/c1ccc(SC)cc1
[7]
  AC50: 18.1 µM (active)

## CNc1ccc(Br)cc(C(=O)/C=C/c2cccc(OC)c2)c1=O
[8]
  IC50: 8.97 µM (active)
[9]
  IC50: 1.92 µM (active)
[10]
  IC50: 7.82 µM (active)
[11]
  CC50: 12.7 µM (active)

## O=C(C1CCC1)N1CCN(c2ccc(Cl)cc2)CC1
[7]
  AC50: 13.5 µM (active)

## Cc1cc(C)c2nc(NC(=O)C3CSC4(C)CCC(=O)N34)sc2c1 (stereo not given)
[12]
  IC50: > 80 µM (inactive)

## O=C(N/N=C/c1cccs1)c1ccc2[nH]cnc2c1
[13]
  EC50: > 50 µM (active)

## CCOc1ccc(-c2noc(-c3ccncc3)n2)cc1OCC
[14]
  EC50: > 10 µM (not active)
